Experimental data reported in US9873883B2, “Glyphosate resistant plants and associated methods” (Dow AgroSciences LLC, priority 2012, dated 2018).
pIC50: −log10 of the molar value. Like-named read-outs stand apart in the source and are kept apart here.

Experiments:
[1] = tested on: Arabidopsis transformed with TraP5 v2::dgt-14 (pDAB105525); assay: Postemergence glyphosate tolerance, visual injury; assay type: in vivo, Arabidopsis thaliana; details: 2 weeks after application
[2] = biological target: T1, Brassica napus (canola) EPSP synthase DGT-3 (GENBANK P17688) variant DGT-3 v7 (G→A, P→S; GAPS) (Brassica napus, UniProt P17688, G173A/P178S); assay: In vitro kinetic assay (inorganic phosphate production, malachite green); assay type: biochemical; details: IC50 (glyphosate)
T1 construct: made in house; host or cells: E. coli Rosetta2 (DE3)

[3] = biological target: T2, Triticum aestivum (wheat) EPSP synthase DGT-7 variant DGT-7 v7 (G→A, P→S; GAPS) (Triticum aestivum, UniProt B5M6A1, G167A/P172S); assay: as above; assay type: biochemical; details: IC50 (glyphosate)
T2 construct: GAPS double mutant

[4] = biological target: Glycine max (soybean) EPSP synthase DGT-1 variant DGT-1 v7 (G→A, P→S; GAPS) (Glycine max, UniProt I1J7U9, G182A/P187S); assay: as above; assay type: biochemical
T0 dgt-14 corn plants = assay: Postemergence herbicide tolerance in dgt-14 transformed T0 corn; assay type: in vivo, Zea mays; details: Durango DMA
Description: T0 events are allowed to acclimate in the greenhouse and are grown until two to four new, normal looking leaves emerge from the whorl (i.e., plants that transition from tissue culture to greenhouse growing conditions). Plants are grown at 27° C. under 16 hour light:8 hour dark conditions in the greenhouse. The plants are then treated with commercial formulations of Durango DMA™ (containing the herbicide glyphosate) with the addition of 2% w/v ammonium-sulfate. Herbicide applications are made with a track sprayer at a spray volume of 187 L/ha, 50-cm spray height. T0 plants are sprayed with a range of glyphosate from 280-4480 g ae/ha glyphosate, which is capable of significant injury to untransformed corn lines. A lethal dose is defined as the rate that causes >95% injury to the B104 inbred.

[5] = tested on: Arabidopsis transformed with TraP9 v2::dgt-14 (pDAB105527); assay: Postemergence glyphosate tolerance, visual injury; assay type: in vivo, Arabidopsis thaliana; details: 2 weeks after application
[6] = tested on: Arabidopsis transformed with TraP13 v2::dgt-14 (pDAB105529); assay: Postemergence glyphosate tolerance, visual injury; assay type: in vivo, Arabidopsis thaliana; details: 2 weeks after application

T2 sequence (B5M6A1 entry or part of it G167A/P172S): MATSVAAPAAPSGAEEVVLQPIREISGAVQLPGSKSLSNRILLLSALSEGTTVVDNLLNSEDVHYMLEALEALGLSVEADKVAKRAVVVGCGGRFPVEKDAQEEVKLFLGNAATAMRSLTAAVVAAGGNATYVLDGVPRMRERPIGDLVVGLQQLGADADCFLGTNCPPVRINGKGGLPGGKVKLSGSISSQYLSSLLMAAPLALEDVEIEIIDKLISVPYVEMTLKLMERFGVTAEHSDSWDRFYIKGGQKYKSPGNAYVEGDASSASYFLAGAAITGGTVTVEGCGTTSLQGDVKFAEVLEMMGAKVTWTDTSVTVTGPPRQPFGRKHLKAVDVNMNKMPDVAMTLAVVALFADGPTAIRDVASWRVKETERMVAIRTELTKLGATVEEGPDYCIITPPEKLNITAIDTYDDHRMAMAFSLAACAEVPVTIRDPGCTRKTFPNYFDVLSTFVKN
Chain of Glycine max (soybean) EPSP synthase DGT-1 variant DGT-1 v7 (G→A, P→S; GAPS) (I1J7U9 entry or part of it G182A/P187S): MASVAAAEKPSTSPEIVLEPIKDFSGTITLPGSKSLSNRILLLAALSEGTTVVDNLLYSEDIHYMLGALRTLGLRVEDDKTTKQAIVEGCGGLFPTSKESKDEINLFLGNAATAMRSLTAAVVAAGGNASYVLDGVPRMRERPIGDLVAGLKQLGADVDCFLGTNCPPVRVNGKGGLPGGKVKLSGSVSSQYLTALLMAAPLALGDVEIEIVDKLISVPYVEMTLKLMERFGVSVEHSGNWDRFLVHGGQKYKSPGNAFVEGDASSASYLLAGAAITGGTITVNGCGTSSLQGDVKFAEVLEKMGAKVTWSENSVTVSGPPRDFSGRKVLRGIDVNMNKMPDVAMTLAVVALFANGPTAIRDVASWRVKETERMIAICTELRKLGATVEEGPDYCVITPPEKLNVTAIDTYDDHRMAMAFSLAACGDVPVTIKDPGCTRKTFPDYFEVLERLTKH
T1 sequence (P17688 73-516 G173A/P178S, one chain of several): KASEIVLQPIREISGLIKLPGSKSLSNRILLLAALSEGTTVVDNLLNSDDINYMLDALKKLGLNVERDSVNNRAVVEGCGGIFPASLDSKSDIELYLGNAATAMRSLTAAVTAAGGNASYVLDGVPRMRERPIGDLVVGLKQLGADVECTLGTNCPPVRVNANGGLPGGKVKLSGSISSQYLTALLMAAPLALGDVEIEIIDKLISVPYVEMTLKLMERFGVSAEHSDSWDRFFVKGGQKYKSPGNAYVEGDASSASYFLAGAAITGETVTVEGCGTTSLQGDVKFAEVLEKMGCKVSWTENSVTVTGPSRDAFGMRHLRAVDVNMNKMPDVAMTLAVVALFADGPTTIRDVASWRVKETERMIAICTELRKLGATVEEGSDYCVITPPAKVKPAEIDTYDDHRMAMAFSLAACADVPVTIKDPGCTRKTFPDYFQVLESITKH

O=C(O)CNCP(=O)(O)O [glyphosate, N-(phosphonomethyl)glycine]
Visual % injury (Ave) ([1]; T2, 840 g ae/ha): 90.0% | Visual % injury (Ave) ([1]; T3, 840 g ae/ha): 97.5% | pIC50 ([2]; at 60 μM PEP): 1.38 | pIC50 ([2]; at 1 mM PEP, values greater than 50 are estimates): 1.30 | pIC50 ([3]; at 60 μM PEP): 1.81 | pIC50 ([3]; at 1 mM PEP): 1.71 | pIC50 [4]: < 1.10 | pIC50 ([4]; read-out: IC50 (glyphosate), at 60 μM PEP, values greater than 50 are estimates): < 1.10 | tolerance to glyphosate achieved at rates up to (T0 dgt-14 corn plants): up to 4480 g ae/ha | Visual % injury (Ave) ([5]; T2, 840 g ae/ha): 0.0% | Visual % injury (Ave) ([5]; T3, 840 g ae/ha): 0.0% | Visual % injury (Ave) ([6]; T2, 840 g ae/ha): 1.3% | Visual % injury (Ave) ([6]; T3, 840 g ae/ha): 0.0%
